Data: publication PMC9151520 (Archives of Toxicology, 2022)
Where two headings read alike, the source gives them in different places.

Tests used:
[1] = system: p53 signaling (p53RE-bla HCT-116 cells); assay: cells; type: cell-based
[2] = system: p53 signaling (p53RE-bla HCT-116 cells); assay: cells; type: cell-based; remark: listed apart in the source
[3] = system: p53 signaling (p53RE-bla HCT-116 cells); assay: cells; type: cell-based; conditions: for Emax: HCT-116, read-out: efficacy
[4] = system: p53 signaling (p53RE-bla HCT-116 cells)
[5] = rat
[6] = system: p53 signaling (p53RE-bla HCT-116 cells); assay: cells; conditions: Homo sapiens
in vitro = conditions: male, Sprague Dawley, rat, microsomes, pH 7.4
[7] = system: p53 signaling (p53RE-bla HCT-116 cells); remark: listed apart in the source
[8] = system: p53 signaling (p53RE-bla HCT-116 cells); assay: cells; conditions: Homo sapiens, HCT-116, read-out: p53 activation EC50, HLM
[9] = HCT-116, read-out: p53 activation EC50, cherry pick confirmation
[10] = HCT-116, read-out: p53 activation efficacy, cherry pick confirmation

Row | SMILES | p53 activation EC50, cherry pick confirmation [1] | p53 activation EC50, primary screening [1] | p53 activation efficacy, cherry pick confirmation [1] | p53 activation efficacy, primary screening [1] | EC50 [2] | EC50 ([3]; Homo sapiens, HCT-116) | Emax ([3]; Homo sapiens) | p53 activation EC50, cherry pick confirmation [4] | p53 activation efficacy, cherry pick confirmation [4] | Viability EC50, cherry pick confirmation (p53RE-bla HCT-116 cells) | Viability EC50, primary screening (p53RE-bla HCT-116 cells) | Viability efficacy, cherry pick confirmation (p53RE-bla HCT-116 cells) | Viability efficacy, primary screening (p53RE-bla HCT-116 cells) | Depletion after 16 h of incubation with cells [5] | EC50 ([6]; HCT-116) | Emax ([6]; HCT-116, read-out: efficacy) | EC50 [6, 9] | Emax [6, 10] | half-life (in vitro) | p53 activation EC50, No MS [1] | other results
1 | COc1c2ccoc2cc2oc(=O)ccc12 [5-Methoxypsoralen] | inactive | inactive | inactive | inactive | Inactive | 13.2 µM | 75% | inactive | inactive | inactive | inactive | inactive | inactive | 45.7 ± 3.67% | 16.4 µM | 72.3% | 9.45 µM | 62.5% | 21.1 ± 3.72 min |  | p53 activation EC50, primary screening [4]: inactive; p53 activation efficacy, primary screening [4]: inactive; EC50 ([6]; HCT-116, read-out: p53 activation EC50, primary screening): 20.9 µM; Emax ([6]; HCT-116, read-out: p53 activation efficacy, primary screening): 81.3%
2 | CCOP(=S)(OCC)Oc1cnc2ccccc2n1 [Quinalphos] | inactive | inactive | inactive | inactive | Inactive |  |  | inactive | inactive | inactive | inactive | inactive | inactive | 96.66 ± 0.83% | 9.46 µM | 32.7% | 7.65 µM | 34.3% | 2.49 ± 0.04 min |  | EC50 [3]: Inactive
3 | CCOP(=S)(OCC)Oc1ccc2c(C)c(Cl)c(=O)oc2c1 [Coumaphos] |  |  |  |  | Inactive | 7.03 µM | 68.7% |  |  |  |  |  |  | 99.03 ± 0.34% | 5.95 µM |  |  |  | 0.88 ± 0.12 min | inactive | p53 activation Efficacy, No MS [1]: inactive; activity outcome in p53-bla assay [7]: induce p53 signaling; p53 activation EC50, HLM [4]: inactive; Viability EC50, HLM (p53RE-bla HCT-116 cells): inactive; Viability EC50, No MS (p53RE-bla HCT-116 cells): inactive; Viability EC50, RLM (p53RE-bla HCT-116 cells): inactive; Viability Efficacy, HLM (p53RE-bla HCT-116 cells): inactive; Viability Efficacy, No MS (p53RE-bla HCT-116 cells): inactive; Viability Efficacy, RLM (p53RE-bla HCT-116 cells): inactive; EC50 [8]: 0.891 µM
4 | CCOP(=S)(OCC)Oc1cc(-c2ccccc2)on1 [Isoxathion] |  |  |  |  |  | 9.77 µM |  |  |  |  |  |  |  | 94.65 ± 0.45% | 8.62 µM | 46% |  |  | 2.77 ± 0.25 min | inactive | p53 activation Efficacy, No MS [1]: inactive; EC50 ([2]; Homo sapiens, HCT-116, 0.5 h): 27.5 µM; p53 activation EC50, HLM [4]: inactive; Viability EC50, HLM (p53RE-bla HCT-116 cells): inactive; Viability EC50, No MS (p53RE-bla HCT-116 cells): inactive; Viability EC50, RLM (p53RE-bla HCT-116 cells): inactive; Viability Efficacy, HLM (p53RE-bla HCT-116 cells): inactive; Viability Efficacy, No MS (p53RE-bla HCT-116 cells): inactive; Viability Efficacy, RLM (p53RE-bla HCT-116 cells): inactive; EC50 [8]: 4.45 µM
5 | CCN(CC)C(=O)SCc1ccc(Cl)cc1 [Thiobencarb] |  |  |  |  |  | 1.84 µM |  |  |  |  |  |  |  | 98.6 ± 0.04% | 5.52 µM | 71.8% |  |  | 1.48 ± 0.54 min |  | p53 activation EC50 [1]: inactive; p53 activation efficacy [1]: inactive; EC50 ([2]; Homo sapiens, HCT-116, 0.5 h): 1.68 µM; p53 activation efficacy [7]: 51.3593; EC50 ([7]; read-out: p53 activation EC50): 1.63 µM; p53 activation EC50 [4]: inactive; Viability EC50 (p53RE-bla HCT-116 cells): inactive; Viability efficacy (p53RE-bla HCT-116 cells): inactive
6 | CCOP(=S)(NC(C)C)Oc1ccccc1C(=O)OC(C)C (stereo not shown) [Isofenphos] | inactive | inactive | inactive | inactive | Inactive | 0.81 µM | 54.3% | inactive | inactive | inactive | inactive | inactive | inactive | 88.45 ± 1.49% | 0.75 µM | 42.6% | 0.777 µM | 42.6% | 1.25 ± 0.47 min |  | 
